# “And” between values parts separate entries of the source, which are not always exact repeats. Identical values can stand only once. Like-named read-outs stand apart in the source and are kept apart here.
# Tested on: Armyworms (Spodoptera exigua)
# Assay: Contact study on armyworm first instar larvae
# Type: in vivo
# Details: for mode of insecticidal action: contact exposure of first instar larvae
# Source text: Contact Study of MOI 201 on Armyworms (Spodoptera exigua)
# Objective: Observe the mode of action and the symptoms caused by 0.6% oxymatrine on larvae of armyworms, as well as to quantify the time required for the larvae to become paralyzed or dead.
# Method: Larvae of beet armyworm were taken as first In-star stage and placed on a microscope slide under a stereomicroscope. A drop of the test product was delivered over them and the larvae were left to soak for 30 seconds. Excess liquid was absorbed with a paper towel and the larvae were observed under the microscope. The products tested were Spinosad at 0.3%, Permethrin at 1%, and 0.6% oxymatrine at 800× and 1000× dilutions. Time 1 indicates the time it took before the larva was unable to perform normal activities like crawling, feeding, etc. Time 2 is the additional time needed for complete elimination/death.
# [1] = Spinosad at 0.3%, Permethrin at 1%, 30 s soak, average of 5 reps
# [2] = Spinosad at 0.3%, Permethrin at 1%, 30 s soak, reps 1-5
Compound,"Time 1: time required for paralysis or convulsions, Average",period of time to affect the insect's basic functions,"Time 2: time between paralysis and death, Average [1]","Time 2: time between paralysis and death, single replicate [2]",mode of insecticidal action,"Time 1: time required for paralysis or convulsions, Average [1]","Time 1: time required for paralysis or convulsions, single replicate [2]","period of time to affect the insect's basic functions (text summary of Time 1, Spinosad 0.3%, Permethrin 1%, 0.6% oxymatrine at 800x and 1000x dilutions)"
CC1(C)C(C=C(Cl)Cl)C1C(=O)OCc1cccc(Oc2ccccc2)c1 (centres unmarked) [Permethrin],1.22 min,1.2 min,333.60 min,447 min and 428 min and 397 min and 97 min and 299 min,work as contact insecticides,,,
Spinosad,,,289.00 min,146 min and 180 min and 363 min and 373 min and 383 min,work as contact insecticides,6.99 min,7.58 min and 8.46 min and 6.33 min and 6.4 min and 6.17 min,7.0 min
